The values below come from PMC5108032, “Discovery of a Quinoline-4-carboxamide Derivative with a Novel Mechanism of Action, Multistage Antimalarial Activity, and Potent in Vivo Efficacy” (Journal of Medicinal Chemistry, 2016).

As a reminder, the kinetic solubility is the concentration staying in solution when a stock, usually in DMSO, is diluted into the medium. As usually defined, the pKa is the negative logarithm of the acid dissociation constant.

One data set has as its system Pf (3D7). The data set can be described thus: Ligand efficiency metrics (LE, LLE, LELP), selectivity and fold changes. Details: species or system Plasmodium falciparum.
Another data set in a line: Mouse pharmacokinetics. The format is in vivo, female NMRI mice. As to conditions: intravenous at 3 mg/kg. The procedure: (100 µl) was then removed from both acceptor and donor compartments and mixed with acetonitrile (80 µl) containing an internal standard. The samples were centrifuged (10 min, 5 °C, 3270 g) to sediment precipitated protein and sealed prior to UPLC-MS/MS analysis using a Quattro Premier XE (Waters Corp, USA). Pe was calculated as shown in the below equation:
Pe (nm/sec) = 107 x - In [1 - CA (t) / Cequi]
CA(t) = peak area of compound present in acceptor well at time t = 18000 sec Cequi = [CD(t) * VD + CA(t) * VA] / (VD + VA)
VA = acceptor well volume
CD(t) = peak area of compound present in donor well at time t = 18000 sec Recovery of compound from donor and acceptor wells was calculated and data was only accepted when recovery exceeded 70 %.
Human ether-à-go-go related gene (hERG) K+ assay (Outsourced)
Compounds were tested for inhibition of the human ether-à-go-go-related gene (hERG) K+ channel using IonWorks patch clamp electrophysiology. Eight-point concentration-response curves were generated on 2 occasions using 3-fold serial dilutions from the maximum final assay concentration.
Compound was dosed as a bolus solution intravenously (12) at 3mg free base/kg (dose volume: 5 mL/kg; dose vehicle: 10% DMSO, 90% saline) to female NMRI mice (n=3) or dosed orally (12 and 13) by gavage as a solution at 10 mg free base/kg (dose volume: 10mL/kg; Dose vehicle: 5 or 10% DMSO; 40% PEG400; 50 or 55% distilled water) to female NMRI mice (n=3/dose level). Female NMRI mice were chosen as these represent the sex and strain used for the P.berghei mouse model of malaria. Blood samples (10 µl) were taken from each mouse at 5, 15 and 30 minutes, 1, 2, 4, 6, and 8 hours post-dose, mixed with two volumes of distilled water and stored frozen until UPLC-MS/MS analysis. The level of each compound in mouse blood was determined by UPLC-MS/MS as previously reported.9 Pharmacokinetic parameters were derived from the blood concentration time curve using PKsolutions software v 2.0 (Summit Research Services, USA). […]

Data set [1] is described as follows: Kinetic aqueous solubility (laser nephelometry). The format is physicochemical. The settings on record: MilliQ water with 1.0% DMSO, aqueous with cosolvent or surfactant or cyclodextrin, kinetic from dmso stock. The text has this:
inhibition at top, C= EC50, D= slope, x= inhibitor concentration and y= % inhibition. […]
reach 100% of inhibition, B was fixed to 100 only when at least 50% of inhibition was reached.
Plasmodium falciparum late stage (IV-V) gametocyte high content imaging assay Plasmodium falciparum NF54-pfs16-LUC-GFP stage IV-V Gametocytes were produced as described previously.5 Compounds were solubilized in DMSO and serially diluted in three concentrations per log standard curves in DM SO. One µl of compound was subsequently diluted in 25µl of water (4% DMSO) and 5µl transferred into the base of 384 well PerkinElmer CellCarrier plates. […]
Post incubation, 5µl of MitoTracker® Red CM -H2Xros (MTR) solution (0.66ug/ml) was added to all wells and the plates incubated for a further 16hours. The assay plates were then imaged and the number of viable gametocytes determined for test compounds plus 0.4%DMSO and 5µM Puromycin. […]
Assay was performed as previously reported.6 Briefly blood containing P. berghei CTRPp-GFP gametocytes was rapidly harvested from infected mice and introduced to test compounds pre-diluted in ookinete medium (to induce gamete formation and support ookinete development) in 96-well plates. […] All assays were performed in triplicate independent experiments and EC50 values calculated in Graphpad Prism. […]

A short description of data set [2]: Rat hepatic portal vein study. The format is in vivo.
The nature of data set [3]: Parallel artificial membrane permeability assay (PAMPA). Format: in vitro ADME. The settings on record: relative to the earlier lead. Background: PAMPA measures passive passage across an artificial lipid membrane.
Data set [4] can be described thus: Experimental pKa by potentiometric titration. Format: physicochemical. As to conditions: value in parentheses, read-out: R^3 group pKa, experimental. The text has this:
Table 4 SAR Study of the R^3 Substituent: Aromatic Groups | column: R^3 group pKa^a

The structures appear in SMILES notation. Converted amounts (≈) assume the structure as drawn.

Regarding `O=C(NCCN1CCCC1)c1cc(NCCCN2CCOCC2)nc2ccc(F)cc12` [Compound 25, 6-Fluoro-2-((3-morpholinopropyl)amino)-N-(2-(pyrrolidin-1-yl)ethyl)quinoline-4-carboxamide], in the data set with Pf (3D7), the “LLE (ligand-lipophilicity efficiency)” value is given as 5.4. For the same compound, the Clb in “Mouse pharmacokinetics” was determined as 14 mL min^–1 kg^–1.
On to `O=C(NCCN1CCCC1)c1cc(NCCCCN2CCOCC2)nc2ccc(Cl)cc12` [Compound 27, 6-Chloro-2-((4-morpholinobutyl)amino)-N-(2-(pyrrolidin-1-yl)ethyl)quinoline-4-carboxamide], for which the “LLE (ligand-lipophilicity efficiency)” value with Pf (3D7) was found to be 6.2. In addition, the “improvement / increase in potency” value in the data set on Pf (3D7) (Pf (3D7), relative to the comparator compound of the sentence) is 17 fold. This compound registered a solubility (kinetic) in data set [1] of 220 µM (≈ 101 µg/mL). This compound came in with a Clb in “Mouse pharmacokinetics” of 4 mL min^–1 kg^–1.
`O=C(NCCN1CCCC1)c1cc(NCCC2CCOCC2)nc2ccc(Cl)cc12` [Compound 30, 6-Chloro-N-(2-(pyrrolidin-1-yl)ethyl)-2-((2-(tetrahydro-2H-pyran-4-yl)ethyl)amino)quinoline-4-carboxamide]: in data set [2], the hepatic extraction stood at 76%. The increase in permeability result in data set [3] is recorded as “more than 20 fold”. For the same compound, in “Mouse pharmacokinetics”, the Clb is listed as 34 mL min^–1 kg^–1.
Turning to `O=C(NCCN1CCCC1)c1cc(-c2ccc(CN3CCOCC3)cc2F)nc2ccc(F)cc12` [Compound 41], the pKa in data set [4] was found to be 6.3.
Same read-out and setting: for `O=C(NCCN1CCCC1)c1cc(-c2ccc(CN3CCOCC3)cc2Cl)nc2ccc(F)cc12` [Compound 42, 2-(2-Chloro-4-(morpholinomethyl)phenyl)-6-fluoro-N-(2-(pyrrolidin-1-yl)ethyl)quinoline-4-carboxamide] the value was 6.3.
